Laboratory results published in PMC10740499, “Benzodioxane–Benzamides as FtsZ Inhibitors: Effects of Linker’s Functionalization on Gram-Positive Antimicrobial Activity” (Antibiotics, 2023).
In brackets after ≈: the same amount, converted by molar mass. Several values for one entry are separate records, joined by “and”; a condition that tells them apart may be missing. Identical values can stand only once. Like-named read-outs stand apart in the source and are kept apart here.

Key:
MDRSA 11.7 = experiment: MIC, broth dilution, MDRSA 11.7; type: cell-based, Staphylococcus aureus; conditions: MDRSA 11.7 clinical isolate
Description: (§1) As described in our previous work, we evaluated all the compounds mentioned above on different S. aureus strains. We tested on both methicillin-sensitive S. aureus (MSSA, ATCC29213) and two clinical isolates of S. aureus showing multi-drug resistance (MDRSA). […] We analyzed the MICs and, if the antibacterial activity was promising, we also determined the percentage of cytotoxicity using the MTT assay on human MRC-5 cells and reported it as TD90. The results of antibacterial properties of all of the synthesized derivatives are shown in Table 1, and they are compared with their reference compounds FZ14, FZ88, and FZ100.
(§2) The detailed protocol is identical to what was previously reported. Briefly, the antimicrobial testing of compounds followed the Clinical and Laboratory Standards Institute and European Committee for Antimicrobial Susceptibility Testing guidelines. A bacterial suspension equivalent to 0.5 McFarland turbidity standard was diluted in cation-adjusted Mueller Hinton broth to prepare a fresh bacterial culture of 10^5 CFU/mL. Compounds dissolved in DMSO were combined with the bacteria and incubated for 20 h at 35 °C. MIC values were determined visually as the lowest compound dilution with no turbidity. MICs were determined against methicillin-sensitive and methicillin-resistant S. aureus strains (11.7 and 12.1). Every assay was performed in triplicate, and for each series of experiments, both positive (tetracycline) and negative (no compounds) controls were included.

[1] = test system: methicillin-sensitive S. aureus (MSSA, ATCC29213); experiment: MIC, broth dilution, MSSA ATCC 29213; type: cell-based, Staphylococcus aureus
Description: as §1
Gram-positive methicillin-sensitive Staphylococcus aureus (MSSA, ATCC 29213) was grown in Luria–Bertani broth (LB), as already described in our papers.
as §2

MDRSA 12.1 = experiment: MIC, broth dilution, MDRSA 12.1; type: cell-based, Staphylococcus aureus; conditions: MDRSA 12.1 clinical isolate
Description: as §1, §2

human MRC-5 cells [2] = test system: human MRC-5 cells; parameters: method as in PMID 33920895; conditions: in words; cited from earlier work
B. subtilis = test system: B. subtilis; parameters: method as in PMID 33920895; conditions: cited from earlier work
[3] = test system: methicillin-sensitive Staphylococcus aureus (MSSA); conditions: cited from earlier work
[4] = test system: methicillin-resistant S. aureus (MRSA); conditions: cited from earlier work
[5] = test system: B. subtilis strain WM5126; experiment: MIC from broth microdilution; type: cell-based, Bacillus subtilis; conditions: Bacillus subtilis
Description: (§3) We further evaluated the most promising compounds on B. subtilis, a model Gram-positive species used previously in evaluating other benzamides, including by our research group. The B. subtilis strain WM5126 expresses a xylose-inducible GFP-tagged ZapA protein. […] We first tested the effects of the compounds on colony viability on solid medium (Figure 4). […] MIC values from microdilution experiments, shown in the right column in Figure 4, largely mirrored the spot viability data.
(§4) The B. subtilis strain used was WM5126 (JH642 amyE::Pxyl-gfp-zapA). For spot viability assays on plates, compounds were diluted from DMSO stocks into molten LB agar and mixed well before solidifying. To assess viability, cells were grown until the early log phase, and then 10-fold serial dilutions of the culture in LB were spotted onto LB agar plates containing the indicated final concentration of the compounds. The plates were incubated overnight at 30 °C and photographed. Microdilution assays to obtain MICs were performed essentially as described for E. coli.

[6] = test system: FtsZ rings in live B. subtilis WM 5126 cells expressing GFP-ZapA; experiment: GFP-ZapA fluorescence microscopy of FtsZ assembly; type: cell-based, Bacillus subtilis; conditions: 0.3 µg/mL (0.8 µM), 90 min
Method: To test if the differential effects of FZ116 and FZ117 enantiomers could be detected as FtsZ assembly changes in B. subtilis cells, we visualized GFP-ZapA patterns after growth in inhibitory concentrations of FZ116 and FZ117 (0.3 µg/mL or 0.8 µM). Cells grown with no added compound grew as typical single bacilli and short chains, with well- defined Z rings clearly visible (Figure 5, left panel, single yellow arrows). […] This conversion of FtsZ rings into a speckle pattern was observed previously, both with FZ100 [14] and with the original benzamide derivatives.
For fluorescence microscopy, overnight cultures of WM5126 were grown at 33 °C (after 1:200 dilution overnight and addition of 0.1% xylose to induce expression of GFP-ZapA) for ~2 h until reaching an OD600 of ~0.2 and then treated with no drug or with compounds FZ116 or FZ117 diluted in water to a final concentration of 0.3 µg/mL (0.8 µM) from stock solutions of 30 mg/mL in DMSO. After the addition of the compounds, the cultures were grown for 90 min while shaking at 33 °C prior to spotting on a thin layer of 1% agarose in phosphate-buffered saline. Cells were imaged with an Olympus BX100 fitted with a 100 × Plan Apochromat objective (N.A. 1.4) and a GFP filter set (Chroma). Images were acquired with CellSens Dimension version 2 software (Evident Corporation, Tokyo, Japan).

[7] = test system: B. subtilis strain WM5126; experiment: Spot viability assay on solid medium; type: cell-based, Bacillus subtilis; conditions: for colony viability on solid medium, in words: more potent compounds, Figure 4A
Description: as §3, §4

human MRC-5 cells [8] = experiment: MTT cytotoxicity assay; type: cell-based; conditions: MRC-5, MTT assay
Description: as §1
Normal human lung fibroblasts (MRC-5) were grown in Dulbecco’s Modified Eagle’s medium (DMEM) supplemented with 10% heat-inactivated fetal calf serum (FCS), 100 U/mL penicillin, and […] streptomycin.
Compounds showing promising antibacterial activity were serially diluted in DMEM and tested for cytotoxicity on MRC-5 cells using the MTT assay (Sigma, St Louis, MO, USA), following the same protocol we previously reported.

[9] = Staphylococcus aureus, 20 h, MSSA ATCC 29213, 20 h at 35 °C, read-out: MIC
[10] = Staphylococcus aureus, read-out: MIC vs S. aureus

Compound	MIC (MDRSA 11.7; Staphylococcus aureus)	MIC [1, 9]	MIC [1, 10]	MIC (MDRSA 12.1; Staphylococcus aureus)	MIC [5]	MIC ([5]; value in brackets)	TD90 (human MRC-5 cells [8])	further results
CC(COc1ccc(F)c(C(N)=O)c1F)C1COc2ccccc2O1 (stereo not drawn) [FZ97, 3-(2-(1,4-benzodioxan-2-yl)-1-propyloxy)-2,6-difluorobenzamide]								MIC (MDRSA 11.7): 366.4 µM (≈ 128 µg/mL); MIC ([1]; MSSA ATCC 29213, 20 h at 35 °C, read-out: MIC): 366.4 µM (≈ 128 µg/mL); MIC ([1]; as repeated in Table S1 beside the docking ranges, read-out: MIC vs S. aureus): 366.4 µM (≈ 128 µg/mL); MIC (MDRSA 12.1): 366.4 µM (≈ 128 µg/mL)
NC(=O)c1c(F)ccc(OCCC2COc3cc4ccccc4cc3O2)c1F (stereo not drawn) [FZ95]								cytotoxicity towards human MRC-5 cells (human MRC-5 cells [2]): low to no cytotoxicity; MIC (B. subtilis): under 0.1 μg/mL; MIC [3]: 0.25 μg/mL and 0.6 μM; MIC [4]: 0.25 μg/mL and 0.6 μM
CC(Oc1ccc(F)c(C(N)=O)c1F)C1COc2ccccc2O1 (stereo not drawn) [FZ105, 3-[1-(1,4-benzodioxan-2yl)ethyl-1-oxy]-2,6-difluorobenzamide]	191 µM (≈ 64 µg/mL)	191 µM (≈ 64 µg/mL)	191 µM (≈ 64 µg/mL)	191 µM (≈ 64 µg/mL)				
NC(=O)c1c(F)ccc(OC[C@@H](O)[C@H]2COc3cc4c(cc3O2)CCCC4)c1F (relative stereo) [FZ117]	19.7 µM (≈ 7.99 µg/mL)	19.7 µM (≈ 7.99 µg/mL)	19.7 µM (≈ 7.99 µg/mL)	19.7 µM (≈ 7.99 µg/mL)	0.94 µg/mL	2.7 µM	468.7 µM	FtsZ ring / GFP-ZapA pattern [6]: mixture of FtsZ speckles and Z rings; colony viability on solid medium, in words [7]: less effective
NC(=O)c1c(F)ccc(OCCC2COc3cc4c(cc3O2)CCCC4)c1F (stereo not drawn) [FZ100]	0.25 µM (≈ 0.0973 µg/mL)	0.25 µM (≈ 0.0973 µg/mL)		0.25 µM (≈ 0.0973 µg/mL)			2054 µM	cytotoxicity towards human MRC-5 cells (human MRC-5 cells [2]): low to no cytotoxicity; MIC (B. subtilis): under 0.1 μg/mL; MIC [3]: 0.1 μg/mL and 0.25 μM; MIC [4]: 0.1 μg/mL and 0.25 μM
NC(=O)c1c(F)ccc(OCC2COc3ccccc3O2)c1F (stereo not drawn) [FZ14, reference compound]	15.6 µM (≈ 5.01 µg/mL)	15.6 µM (≈ 5.01 µg/mL)		15.6 µM (≈ 5.01 µg/mL)			49.8 µM	
CC(COc1ccc(F)c(C(N)=O)c1F)C1COc2cc3c(cc2O1)CCCC3 (stereo not drawn) [FZ118, Erythro 3-(2-(5,6,7,8-Tetrahydro-1,4-naphthodioxan-2-yl)prop-1-yloxy)-2,6-difluorobenzamide]	9.9 µM (≈ 3.99 µg/mL)	9.9 µM (≈ 3.99 µg/mL)	9.9 µM (≈ 3.99 µg/mL)	9.9 µM (≈ 3.99 µg/mL)	< 0.24 µg/mL	< 0.6 µM	471.0 µM	colony viability on solid medium, in words [7]: less effective
NC(=O)c1c(F)ccc(OC[C@@H](O)[C@H]2COc3ccccc3O2)c1F (relative stereo) [FZ113]	364 µM (≈ 128 µg/mL)	364 µM (≈ 128 µg/mL)	364 µM (≈ 128 µg/mL)	364 µM (≈ 128 µg/mL)	15 µg/mL	42 µM		growth on solid medium at 6 µg/mL ([7]; 6 µg/mL in LB agar): still permitted growth
